Results as given in ChEMBL document CHEMBL5724914, “Linking interpersonal differences in gut microbiota composition and drug biotransformation activity” (2024).

Key:
[1] = (§1) The drug is tested on Z-019 corresponding to rat gut metagenome with ENA study accession number: PRJEB37062 and ENA sample accession number: ERS12561818 for biotransformation under anaerobic condition. The drug concentrations were measured over 9 timepoints collected between 0 and 24 hours of incubation by liquid-chromatography-coupled mass spectrometry (LC–MS); conditions: 2 µM
[2] = as §1, with “on Z-011” for “on Z-019”, “to mouse” for “to rat”, “number: ERS12561811” for “number: ERS12561818”; conditions: 2 µM
[3] = human gut metagenome, 24 h, 2 µM
[4] = as §1, with “Z-007” for “Z-019”, “ERS12561807” for “ERS12561818”; conditions: 2 µM
[5] = as §1, with “Z-014” for “Z-019”, “ERS12561814” for “ERS12561818”; conditions: 2 µM
[6] = human gut metagenome, 24 h, 2 µM; remark: listed apart in the source
[7] = as §1, with “on Z-022” for “on Z-019”, “to mouse” for “to rat”, “number: ERS12561821” for “number: ERS12561818”; conditions: 2 µM
[8] = human gut metagenome, 24 h, 2 µM; remark: listed apart in the source
[9] = as §1, with “on WLS-077” for “on Z-019”, “to human” for “to rat”, “number: ERS12561750” for “number: ERS12561818”; conditions: 2 µM
[10] = as §1, with “on WLS-052” for “on Z-019”, “to human” for “to rat”, “number: ERS12561747” for “number: ERS12561818”; conditions: 2 µM
[11] = as §1, with “on Z-001” for “on Z-019”, “to mouse” for “to rat”, “number: ERS12561801” for “number: ERS12561818”; conditions: 2 µM
[12] = as §1, with “on Z-013” for “on Z-019”, “to rabbit” for “to rat”, “number: ERS12561813” for “number: ERS12561818”; conditions: 2 µM
[13] = as §1, with “on Z-024” for “on Z-019”, “to pig” for “to rat”, “number: ERS12561823” for “number: ERS12561818”; conditions: 2 µM
[14] = as §1, with “on Z-016” for “on Z-019”, “to mouse” for “to rat”, “number: ERS12561815” for “number: ERS12561818”; conditions: 2 µM
[15] = human gut metagenome, 24 h, 2 µM; remark: listed apart in the source
[16] = human gut metagenome, 24 h, 2 µM; remark: listed apart in the source
[17] = human gut metagenome, 24 h, 2 µM; remark: listed apart in the source
[18] = human gut metagenome, 24 h, 2 µM; remark: listed apart in the source
[19] = human gut metagenome, 24 h, 2 µM; remark: listed apart in the source
[20] = human gut metagenome, 24 h, 2 µM; remark: listed apart in the source
Note: call rule not given here.

SMILES | Bacterial Biotransformation [1] | Bacterial Biotransformation [2] | Bacterial Biotransformation [3] | Bacterial Biotransformation [4] | Bacterial Biotransformation [5] | Bacterial Biotransformation [6] | Bacterial Biotransformation [7] | Bacterial Biotransformation [8] | Bacterial Biotransformation [9] | Bacterial Biotransformation [10] | Bacterial Biotransformation [11] | Bacterial Biotransformation [12] | Bacterial Biotransformation [13] | Bacterial Biotransformation [14] | Bacterial Biotransformation [15] | Bacterial Biotransformation [16] | Bacterial Biotransformation [17] | Bacterial Biotransformation [18] | Bacterial Biotransformation [19] | Bacterial Biotransformation [20]
CC(C)OC(=O)C(C)(C)Oc1ccc(C(=O)c2ccc(Cl)cc2)cc1 [FENOFIBRATE] | Compound NOT metabolized | Compound metabolized | Compound NOT metabolized | Compound metabolized | Compound metabolized | Compound metabolized | Compound NOT metabolized | Compound metabolized | Compound NOT metabolized | Compound NOT metabolized | Compound NOT metabolized | Compound metabolized | Compound NOT metabolized | Compound metabolized | Compound metabolized | Compound metabolized | Compound NOT metabolized | Compound NOT metabolized | Compound metabolized | Compound metabolized
COc1ccccc1OCC(O)CN1CCN(CC(=O)Nc2c(C)cccc2C)CC1 (stereo not given) [RANOLAZINE] | Compound NOT metabolized | Compound NOT metabolized | Compound NOT metabolized | Compound NOT metabolized | Compound NOT metabolized | Compound NOT metabolized | Compound metabolized | Compound NOT metabolized | Compound NOT metabolized | Compound NOT metabolized | Compound NOT metabolized | Compound NOT metabolized | Compound NOT metabolized | Compound NOT metabolized | Compound NOT metabolized | Compound NOT metabolized | Compound NOT metabolized | Compound NOT metabolized | Compound NOT metabolized | Compound NOT metabolized
CC(C)(C)NC[C@H](O)COc1ccccc1C1CCCC1.CC(C)(C)NC[C@H](O)COc1ccccc1C1CCCC1.O=S(=O)(O)O [PENBUTOLOL SULFATE] | Compound NOT metabolized | Compound NOT metabolized | Compound metabolized | Compound NOT metabolized | Compound NOT metabolized | Compound metabolized | Compound metabolized | Compound metabolized | Compound metabolized | Compound metabolized | Compound metabolized | Compound NOT metabolized | Compound metabolized | Compound NOT metabolized | Compound NOT metabolized | Compound metabolized | Compound metabolized | Compound NOT metabolized | Compound metabolized | Compound metabolized
COc1ccc2[nH]c([S+]([O-])Cc3ncc(C)c(OC)c3C)nc2c1 (stereo not given) [OMEPRAZOLE] | Compound NOT metabolized | Compound NOT metabolized | Compound metabolized | Compound NOT metabolized | Compound NOT metabolized | Compound metabolized | Compound NOT metabolized | Compound metabolized | Compound metabolized | Compound metabolized | Compound NOT metabolized | Compound NOT metabolized | Compound NOT metabolized | Compound metabolized | Compound metabolized | Compound metabolized | Compound metabolized | Compound metabolized | Compound metabolized | Compound metabolized
CN1CCN(C(=O)O[C@H]2c3nccnc3C(=O)N2c2ccc(Cl)cn2)CC1 [ESZOPICLONE] | Compound NOT metabolized | Compound NOT metabolized | Compound NOT metabolized | Compound NOT metabolized | Compound NOT metabolized | Compound NOT metabolized | Compound NOT metabolized | Compound NOT metabolized | Compound NOT metabolized | Compound NOT metabolized | Compound NOT metabolized | Compound NOT metabolized | Compound NOT metabolized | Compound NOT metabolized | Compound NOT metabolized | Compound NOT metabolized | Compound NOT metabolized | Compound NOT metabolized | Compound NOT metabolized | Compound NOT metabolized
OC(CCN1CCCCC1)(c1ccccc1)C1CCCCC1 (stereo not given) [TRIHEXYPHENIDYL] | Compound NOT metabolized | Compound NOT metabolized | Compound metabolized | Compound NOT metabolized | Compound NOT metabolized | Compound metabolized | Compound metabolized | Compound metabolized | Compound metabolized | Compound NOT metabolized | Compound metabolized | Compound NOT metabolized | Compound metabolized | Compound metabolized | Compound NOT metabolized | Compound metabolized | Compound metabolized | Compound metabolized | Compound metabolized | Compound metabolized
COc1ccccc1N1CCN(CC(O)COc2cccc3ccccc23)CC1 (stereo not given) [NAFTOPIDIL] | Compound NOT metabolized | Compound NOT metabolized | Compound NOT metabolized | Compound NOT metabolized | Compound NOT metabolized | Compound NOT metabolized | Compound metabolized | Compound NOT metabolized | Compound NOT metabolized | Compound NOT metabolized | Compound NOT metabolized | Compound NOT metabolized | Compound metabolized | Compound NOT metabolized | Compound NOT metabolized | Compound NOT metabolized | Compound NOT metabolized | Compound NOT metabolized | Compound NOT metabolized | Compound NOT metabolized
CN1C(=O)CCS(=O)(=O)C1c1ccc(Cl)cc1 (stereo not given) [CHLORMEZANONE] | Compound NOT metabolized | Compound NOT metabolized | Compound NOT metabolized | Compound NOT metabolized | Compound NOT metabolized | Compound NOT metabolized | Compound NOT metabolized | Compound NOT metabolized | Compound NOT metabolized | Compound NOT metabolized | Compound NOT metabolized | Compound NOT metabolized | Compound NOT metabolized | Compound NOT metabolized | Compound NOT metabolized | Compound NOT metabolized | Compound NOT metabolized | Compound NOT metabolized | Compound NOT metabolized | Compound NOT metabolized
